Columns and labels:
human topoisomerase I = human topoisomerase I (Homo sapiens, UniProt P11387); assay: Supercoiled pBR322 DNA relaxation assay; type: biochemical; conditions: concentrations as high as 50 μg/ml
Text: To determine whether CC-I is a specific inhibitor of topoisomerase I or IIα, the ability of CC-I to inhibit topoisomerases I and IIα activity was examined using a supercoiled DNA relaxation assay.

MCF10A = assay: Cytotoxicity, MCF10A; type: cell-based, human; conditions: immortalized, non-transformed mammary epithelial cell line
OVCAR-3 = assay: Cytotoxicity, ovarian cancer cells; type: cell-based; conditions: human ovarian carcinoma cell line
Protocol: To assess the effect of CC-I on the ovarian cancer cells, the cells were cultured overnight at a density of 5,000 to 10,000 cells per well in 96 well plates. Then the cells were treated with different concentrations of CC-I (Formula IV) or Formula V for another 3-6 days before cytotoxicity assay using MTS or SRB assay. The IC50 or LD50, 50% inhibition or lethal dose, of compounds is also determined using statistical software (GraphPad) as a general indicator of toxicity.

CCF-STTG1 = assay: cells
Protocol: Human neuroblastoma cell lines were cultured in Dulbecco's Modified Eagle Medium (DMEM)/F12 media. Human glioma cells were ordered from American Type Culture Collection (ATCC, Manassas, Va.), and maintained in DMEM with 4×10^−3M L-glutamine, 100 U/ml penicillin, 100 μg/ml streptomycin, and 10% fetal bovine serum (FBS). All experiments were performed at 37° C. in 5% CO2 atmosphere under cell culture conditions. Prior to γ-radiation or exposure to chemotherapeutic agents, the glioma cells were plated at a density of 156 to 8,000 cells per well in 96 well plates to account for differences in growth rates, and to obtain similar cell densities for the experimental manipulations, and cultured overnight. Then cells received different dosages of γ-radiation from a ^60Co source GammaCell 220 (Nordion International Inc, Ontario, Canada) or chemotherapeutic agents for another 2-6 days. Cell cytotoxicity assay was determined by MTS [3-(4,5-dimethylthiazol-2-yl)-5-(3-carboxymethoxyphenyl)-2-(4-sulfophenyl)-2H-tetrazolium, inner salt] Cell Proliferation Assay (Promega, Madison, Wis.) or sulforhodamine B (SRB) assay at the end of the exposure period (47, 48).
Temodar®-resistant cell lines were used to screen for compounds having the ability to decelerate the growth of, or kill, Temodar®-resistant cells. The efficacy of over 15,000 different compounds in the Drug Discovery Core at Pennsylvania State Hershey Medical Center was tested on Temodar®-resistant human neuroblastoma SH-SY5Y and human glioma CCF-STTG1 cell lines with a colorimetric cytotoxicity assay, the sulforhodamine B (SRB) assay (53).
Chemotype moiety compounds of CC-I were also tested on the Temodar-resistant CCF-STTG1 and Temodar®-sensitive U87-MG cell lines. The glioma cell culture and treatment is as described above.
The human glioma CCF-STTG1 cell lines were plated at a density of 5,000 cells per well in 96 well plates under standard DMEM cell culture conditions and then exposed to different concentrations of CC-I, merbarone, or ICRF-193 for 5 days. Merbarone and ICRF-193 are both topoisomerase II inhibitors (55, 56).

ST88 = assay: Cytotoxicity, ST88 neurofibroma cells; type: cell-based, human
Protocol: Cells of established neurofibroma cell lines were plated at a density of 2000-4000 cells per well in 96 well plates under standard cell culture conditions (54) and then exposed to CC-I for 2 days.

U251 = assay: Cytotoxicity (MTS or SRB assay), U251; type: cell-based; conditions: human astrocytoma or glioblastoma cell line
Protocol: (§1) Human neuroblastoma cell lines were cultured in Dulbecco's Modified Eagle Medium (DMEM)/F12 media. Human glioma cells were ordered from American Type Culture Collection (ATCC, Manassas, Va.), and maintained in DMEM with 4×10^−3M L-glutamine, 100 U/ml penicillin, 100 μg/ml streptomycin, and 10% fetal bovine serum (FBS). All experiments were performed at 37° C. in 5% CO2 atmosphere under cell culture conditions. Prior to γ-radiation or exposure to chemotherapeutic agents, the glioma cells were plated at a density of 156 to 8,000 cells per well in 96 well plates to account for differences in growth rates, and to obtain similar cell densities for the experimental manipulations, and cultured overnight. […] Cell cytotoxicity assay was determined by MTS [3-(4,5-dimethylthiazol-2-yl)-5-(3-carboxymethoxyphenyl)-2-(4-sulfophenyl)-2H-tetrazolium, inner salt] Cell Proliferation Assay (Promega, Madison, Wis.) or sulforhodamine B (SRB) assay at the end of the exposure period (47, 48).

CCF-STTG1 cell tumors = assay: Athymic nude mouse subcutaneous glioma tumor model; conditions: 25 mg/kg i.p. once a week for 7 weeks
Protocol: The efficacy and toxicity of CC-I was tested in vivo using the athymic nude mouse subcutaneous tumor model. Ten million cells of the Temodar®-sensitive (SW1088) or Temodar®-resistant (CCF-STTG1) malignant glioma cell lines were injected into the flank of one-month-old, female athymic nude mice. When the tumor reached 32 mm^3 in size (week I on graph), CC-I (25 mg/kg) was injected intraperitoneally once a week for 7 weeks.

SVGp12 = assay: Cytotoxicity, SVGp12; type: cell-based; conditions: SV40 transformed human astrocyte cell line
Protocol: as §1

[1] = test system: U87-MG or CCF-STTG1 glioma cells; assay: Intracranial orthotopic xenograft brain tumor model; conditions: 25 mg/kg i.p. once a week for 7 weeks
Protocol: The effect of CC-I in an intracranial, orthotopic xenograft brain tumor model was analysed. The caudate putamen region of female, athymic nude mice was injected with 10^6 human U87-MG (Temodar®-sensitive) or CCF-STTG1 (Temodar®-resistant) glioma cells in a volume of 10 μl. At one week post-injection, tumor volume was measured using Ti weighted MRI contrast (7T MR imaging system). Thereafter, CC-I was injected intraperitoneally, once a week for 7 weeks at a concentration of 25 mg/kg body weight. Tumor size was measured weekly. […] Liver and kidney toxicity (total bilirubin, blood urea nitrogen (BUN), creatine, aspartate aminotransferase (SGOT/AST), alanine aminotransferase (SGPT/ALT), and alkaline phosphatase) were also determined using an automated chemistry analyzer machine (Roche Cobase MIRA) and kits manufactured by Thermo Electron.

WT/SH-SY5Y = assay: Cytotoxicity, WT/SH-SY5Y neuroblastoma; type: cell-based; conditions: wild type HFE transfected human neuroblastoma SH-SY5Y
Protocol: as §1

A549 cells = assay: pXC50 on A549 cells (later tests); type: cell-based
MCF7 = assay: Cytotoxicity, MCF7; type: cell-based; conditions: human breast adenocarcinoma cell line
Protocol: as §1

[2] = test system: Human Astrocyte (Normal cells); assay: Cytotoxicity, normal human astrocytes; type: cell-based
Protocol: The human astrocyte cells were cultured from brains of deceased amyotrophic lateral sclerosis (ALS) patients (Uniform Anatomic Gift Act of 1987). The cerebrum was isolated from the other brain regions and meninges and placed in calcium and magnesium-free Hank's buffered salt solution (CMF-HBSS). The cerebrum was diced, incubated with trypsin/EDTA (Gibco BRL, Grand Island, N.Y.) and triturated with DNase. Tissue was passed through a 135 μm Nitex screen (SEFAR America, Depew, N.Y.), washed twice with CMF-HBSS, re-suspended in media (DMEM/10% FBS, 7.5 mM glucose, 4 mM L-glutamine, 1,000 U/mL penicillin, […], 2.5 μg/mL amphotericin B), centrifuged and passed through two sets of 35 μm Nitex screens. Dissociated cells was plated in poly-D-lysine pre-coated 175 cm^2 flasks. The mixed glial cultures were grown for 14 days, and then shaken to dislodge microglia cells and oligodendrocytes that were discarded. The pure astrocytes were attached to the bottom of the flask.

Chain of human topoisomerase I (P11387 whole entry): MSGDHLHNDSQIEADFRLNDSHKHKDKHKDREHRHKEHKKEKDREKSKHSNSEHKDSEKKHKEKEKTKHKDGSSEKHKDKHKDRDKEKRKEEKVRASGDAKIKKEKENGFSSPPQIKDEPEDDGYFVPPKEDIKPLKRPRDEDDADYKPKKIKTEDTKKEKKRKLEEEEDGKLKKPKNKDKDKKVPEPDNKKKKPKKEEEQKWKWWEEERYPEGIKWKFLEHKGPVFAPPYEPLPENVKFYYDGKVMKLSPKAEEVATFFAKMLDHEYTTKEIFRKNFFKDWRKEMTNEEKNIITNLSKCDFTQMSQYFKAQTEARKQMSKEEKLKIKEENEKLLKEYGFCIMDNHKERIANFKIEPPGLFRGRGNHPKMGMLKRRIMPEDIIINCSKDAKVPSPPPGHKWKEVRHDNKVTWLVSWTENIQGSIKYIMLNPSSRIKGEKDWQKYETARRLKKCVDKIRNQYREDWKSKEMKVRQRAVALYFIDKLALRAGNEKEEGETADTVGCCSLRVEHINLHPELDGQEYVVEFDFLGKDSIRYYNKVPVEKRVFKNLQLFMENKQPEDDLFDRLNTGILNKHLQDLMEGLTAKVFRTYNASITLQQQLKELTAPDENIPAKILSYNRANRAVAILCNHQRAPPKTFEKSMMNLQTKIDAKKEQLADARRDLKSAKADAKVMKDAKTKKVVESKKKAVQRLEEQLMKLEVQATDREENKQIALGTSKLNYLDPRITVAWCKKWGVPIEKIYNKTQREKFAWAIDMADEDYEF

**Q.** Which “effect on topoisomerase I activity” value (human topoisomerase I) does the source give for CCN1C(=O)C(=C/C=C/c2ccco2)C(=O)NC1=S [CC-I] here?
**A.** The value was “no effect”.

**Q.** And the IC50 (MCF10A)?
**A.** Its IC50 is 6.5 µM.

**Q.** And the IC50 (OVCAR-3)?
**A.** Its IC50 is 3.5 µM.

**Q.** And the “cytotoxicity compared with merbarone or ICRF-193” value (CCF-STTG1; CCF-STTG1, 5 days)?
**A.** The value was “more cytotoxic”.

**Q.** And the IC50 (CCF-STTG1; read-out: IC50 (μM) CCF-STTG1, human astrocytoma or glioblastoma cell line, Temodar-resistant)?
**A.** Its IC50 is 4.3 µM.

**Q.** What about the LD50 (ST88; ST88 neurofibroma cells, 2 days exposure) of the same molecule?
**A.** The LD50 was 2.1 µg/mL.

**Q.** What about the IC50 (ST88; human neurofibroma cell line) of the same molecule?
**A.** The IC50 was 7.5 µM.

**Q.** And the IC50 (U251)?
**A.** The IC50 was 3.8 µM.

**Q.** What about the “body weight of the mice” value (CCF-STTG1 cell tumors) of the same molecule?
**A.** The value was “not affected”.

**Q.** And the “liver or kidney toxicity” value (CCF-STTG1 cell tumors)?
**A.** Its value is “No liver or kidney toxicity”.

**Q.** What about the “growth of subcutaneous tumors” value (CCF-STTG1 cell tumors; CCF-STTG1 tumors, nude mice) of the same molecule?
**A.** Its value is “completely inhibited”.

**Q.** What about the IC50 (SVGp12) of the same molecule?
**A.** Its IC50 is 4.2 µM.

**Q.** And the “body weight of mice” value [1]?
**A.** Its value is “not affected”.

**Q.** What about the “liver and kidney toxicity (blood chemistry)” value [1] of the same molecule?
**A.** The value was “no liver or kidney toxicity”.

**Q.** What about the “survival of tumor-bearing mice” value [1] of the same molecule?
**A.** The value was “extended survival”.

**Q.** And the intracranial tumor growth ([1]; Temodar-resistant and -sensitive tumors)?
**A.** The intracranial tumor growth was “inhibited tumor growth”.

**Q.** What about the IC50 (WT/SH-SY5Y) of the same molecule?
**A.** The IC50 was 3.3 µM.

**Q.** And the pXC50 (A549 cells)?
**A.** Its pXC50 is 4.5.

**Q.** What about the IC50 (MCF7) of the same molecule?
**A.** The IC50 was 15.6 µM.

**Q.** And the “toxicity to normal human astrocytes” value ([2]; at concentrations toxic to Temodar-resistant glioma cells)?
**A.** The value was “not toxic”.

**Q.** What about the IC50 ([2]; normal cells) of the same molecule?
**A.** The IC50 was 16.4 µM.
